# Reference: patent publication US6608064B2, “Pharmaceutical agents for the treatment of Parkinson's disease, ADHD and microadenomas” (Pfizer Inc, priority 1998, dated 2003)
# Test system: MPTP-(1-methyl-4-phenyl-1,2,3,6-tetrahydropyridine) treated monkeys
# Experiment: Parkinsonian score in MPTP-treated monkeys after administration of sunipetron
# Format: in vivo
# Conditions: 0.5 mg/kg or 1.0 mg/kg, rated at 4 time points vs vehicle, estimated plasma levels (FIG. 1)
# Procedure: Neurol., 35:655-661, 1994, and Klockgether et al., Ann. Neurol., 30:717-723, 1991.
# The behavioral effects of administration of sunipetron on parkinsonian score in MPTP-(1-methyl-4-phenyl-1,2,3,6-tetrahydropyridine) treated monkeys was determined. The methods employed are described in Greenemyre et al., supra and Klockgether et al., supra.
# Briefly, parkinsonian monkeys were administered 0.5 mg/kg or 1.0 mg/kg of sunipetron and the severity of parkinsonian symptoms was rated at each of 4 time points after drug administration as compared with administration of a control solution (“Vehicle”).
# The minimum effective plasma level was approximately 100 ng/ml.
smiles,measurement,value
O=C1CCC(=O)N1C[C@H]1CC[C@H]2CN(c3ncccn3)CCN2C1 [sunipetron],minimum effective plasma level (reduction in parkinsonian score),approximately 100 ng/ml
same,plasma level at which the maximum reduction in parkinsonian score was attained,approximately 200 ng/ml
